Structures are written as SMILES. Values after ≈ are worked out from the molar mass of the structure shown.

Series [1] has as its system Staphylococcus aureus. The series can be described thus: Antibacterial activity against methicillin-resistant Staphylococcus aureus ATCC 33591 assessed as inhibition of bacterial growth incubated for 24 hrs by broth microdilution method. Type of series: functional.
Series [2] concerns Staphylococcus aureus. The series can be described thus: Antibacterial activity against methicillin-resistant Staphylococcus aureus ATCC 43300 assessed as inhibition of bacterial growth incubated for 24 hrs by broth microdilution method. Type of series: functional. On the technique in general: In broth dilution the organism is exposed to a series of concentrations in liquid medium.

Series [3] relates to Staphylococcus aureus. The series can be described thus: Antibacterial activity against […] assessed as inhibition of bacterial growth incubated for 24 hrs by broth microdilution method. The conditions noted are these: ATCC 29213. Type of series: functional.
Series [4] concerns Staphylococcus epidermidis. The series can be described thus: Antibacterial activity against methicillin-resistant Staphylococcus epidermidis ATCC 51625 assessed as inhibition of bacterial growth incubated for 24 hrs by broth microdilution method. In kind it is functional.
Series [5] deals with Acinetobacter baumannii. The series can be described thus: Antibacterial activity against Acinetobacter baumannii ATCC 19606 assessed as inhibition of bacterial growth incubated for 24 hrs by broth microdilution method. Type of series: functional.
Series [6] has as its system Salmonella enterica. The series can be described thus: Antibacterial activity against Salmonella enterica ATCC 14028 assessed as inhibition of bacterial growth incubated for 24 hrs by broth microdilution method. In kind it is functional.
Series [7] concerns Escherichia coli. The series can be described thus: Antibacterial activity against Escherichia coli ATCC 25922 assessed as inhibition of bacterial growth incubated for 24 hrs by broth microdilution method. In kind it is functional.
In series [8] the test system is Escherichia coli. The series can be described thus: Antibacterial activity against Escherichia coli CMCC 44103 assessed as inhibition of bacterial growth incubated for 24 hrs by broth microdilution method. Type of series: functional.
Series [9] is described as follows: Aqueous solubility of the compound in physiological saline measured after 12 hrs by UV spectrophotometric analysis. Type of series: physicochemical.

As to `C=C[C@]1(C)C[C@@H](OC(=O)CSc2nc(-c3cc[n+](Cc4cc(OC)cc(OC)c4)cc3)cs2)[C@]2(C)[C@H](C)CC[C@]3(CCC(=O)[C@H]32)[C@@H](C)[C@@H]1O.[Br-]`, the minimal inhibitory concentration (MIC) in series [1] was 64 µg/mL; in series [2], 128 µg/mL; in series [3] it was 128 µg/mL; in series [4] it was 128 µg/mL; in series [5], 8 µg/mL; in series [6], 16 µg/mL. Further, the figures for the minimum inhibitory concentration (MIC) in series [7] and in series [8] were 32 µg/mL and 8 µg/mL, respectively. Further, the solubility at 12 h in series [9] worked out at 912 µM.
Regarding `C=C[C@]1(C)C[C@@H](OC(=O)CSc2nc(-c3cc[n+](Cc4ccsc4)cc3)cs2)[C@]2(C)[C@H](C)CC[C@]3(CCC(=O)[C@H]32)[C@@H](C)[C@@H]1O.[Br-]`, the MIC is 1 µg/mL in series [1]; 0.5 µg/mL in series [2]; 0.25 µg/mL in series [3]; 1 µg/mL in series [4]; 8 µg/mL in series [5]; 2 µg/mL in series [6]. For the same compound, the minimum inhibitory concentration (MIC) in series [7] worked out at 1 µg/mL; in [8], 0.5 µg/mL. In [9], this compound returned a solubility at 12 h of 702 µM.
With `C=C[C@]1(C)C[C@@H](OC(=O)CSc2nnc(-c3ccncc3)o2)[C@]2(C)[C@H](C)CC[C@]3(CCC(=O)[C@H]32)[C@@H](C)[C@@H]1O`, the MIC was 64 µg/mL (≈ 119 µM) in series [1]; 128 µg/mL (≈ 237 µM) in series [2]; 16 µg/mL (≈ 29.6 µM) in series [3]; 128 µg/mL (≈ 237 µM) in series [4]; 128 µg/mL (≈ 237 µM) in [5]; 64 µg/mL (≈ 119 µM) in series [6]. Also, the MIC is above 128 µg/mL in [7] and 128 µg/mL (≈ 237 µM) in series [8].
Consider `C=C[C@]1(C)C[C@@H](OC(=O)CSc2nc(-c3cc[n+](Cc4ccc5ccccc5c4)cc3)cs2)[C@]2(C)[C@H](C)CC[C@]3(CCC(=O)[C@H]32)[C@@H](C)[C@@H]1O.[Br-]`, for which the MIC was found to be 16 µg/mL in [1]; 4 µg/mL in series [2]; 4 µg/mL in [3]; 4 µg/mL in series [4]; 16 µg/mL in [5]; 4 µg/mL in series [6]. Also, the MIC in series [7] was 16 µg/mL; in series [8] it was 8 µg/mL. The compound also had a solubility at 12 h in series [9] of 483 µM.
For the compound `C=C[C@]1(C)C[C@@H](OC(=O)CSc2nc(-c3cc[n+](Cc4ccc(C#N)cc4)cc3)cs2)[C@]2(C)[C@H](C)CC[C@]3(CCC(=O)[C@H]32)[C@@H](C)[C@@H]1O.[Br-]`, the MIC in [1] was determined as 64 µg/mL; in series [2], 2 µg/mL; in series [3], 0.125 µg/mL; in series [4] it was 16 µg/mL; in [5] it was 32 µg/mL; in [6], 32 µg/mL. Besides, the MIC in series [7] came out at 2 µg/mL; in series [8] it was 8 µg/mL. For the same compound, the solubility at 12 h in [9] came to 683 µM.
Regarding `Br.C=C[C@]1(C)C[C@@H](OC(=O)CSc2nc(-c3cc[n+](Cc4ccc([N+](=O)[O-])o4)cc3)cs2)[C@]2(C)[C@H](C)CC[C@]3(CCC(=O)[C@H]32)[C@@H](C)[C@@H]1O`, the MIC in [1] amounted to 32 µg/mL; in series [2], 8 µg/mL; in series [3], 4 µg/mL; in series [4], 8 µg/mL; in series [5] it was 16 µg/mL; in [6], 32 µg/mL. Moreover, the MIC in series [7] came out at 8 µg/mL; in series [8], 64 µg/mL. Also, the solubility at 12 h in series [9] came to 1650 µM.
As for `C=C[C@]1(C)C[C@@H](OC(=O)CSc2nnc(-c3cc[n+](Cc4ccccc4)cc3)o2)[C@]2(C)[C@H](C)CC[C@]3(CCC(=O)[C@H]32)[C@@H](C)[C@@H]1O.[Br-]`, the MIC came out at 64 µg/mL in series [1]; 32 µg/mL in series [2]; 16 µg/mL in series [3]; 128 µg/mL in series [4]; 128 µg/mL in [5]; 32 µg/mL in series [6]. In addition, the MIC in [7] came to 128 µg/mL; in series [8], 64 µg/mL.
As to `C=C[C@]1(C)C[C@@H](OC(=O)CSc2nc(-c3cc[n+](Cc4ccccc4)cc3)cs2)[C@]2(C)[C@H](C)CC[C@]3(CCC(=O)[C@H]32)[C@@H](C)[C@@H]1O.[Br-]`, the MIC in [1] is 1 µg/mL; in series [3], 0.125 µg/mL; in series [4], 4 µg/mL; in series [5] it was 4 µg/mL; in [8], 0.25 µg/mL. The concentration in solution in [9] (solubility at 12 h) was 871 µM.
For `Br.C=C[C@]1(C)C[C@@H](OC(=O)CSc2nnc(-c3cc[n+](Cc4ccc([N+](=O)[O-])cc4)cc3)o2)[C@]2(C)[C@H](C)CC[C@]3(CCC(=O)[C@H]32)[C@@H](C)[C@@H]1O`, the MIC amounted to 32 µg/mL in [1]; 64 µg/mL in series [2]; 32 µg/mL in [3]; 32 µg/mL in series [4]; 64 µg/mL in series [5]; 128 µg/mL in series [6]. In addition, the MIC in [7] is above 128 µg/mL; in series [8], 128 µg/mL.
Consider `C=C[C@]1(C)C[C@@H](OC(=O)CSc2nc(-c3cc[n+](Cc4ccc(OC(F)(F)F)cc4)cc3)cs2)[C@]2(C)[C@H](C)CC[C@]3(CCC(=O)[C@H]32)[C@@H](C)[C@@H]1O.[Br-]`, for which the MIC in [1] was 2 µg/mL; in series [2] it was 2 µg/mL; in series [3], 2 µg/mL; in [4], 4 µg/mL; in [5], 8 µg/mL; in series [6], 4 µg/mL. The MIC in series [7] was 2 µg/mL; in series [8] it was 32 µg/mL. For the same compound, the concentration in solution in series [9] (solubility at 12 h) came to 537 µM.
For `C=C[C@]1(C)C[C@@H](OC(=O)CSc2nc(-c3cc[n+](Cc4ccc(C(C)(C)C)cc4)cc3)cs2)[C@]2(C)[C@H](C)CC[C@]3(CCC(=O)[C@H]32)[C@@H](C)[C@@H]1O.[Br-]`, the MIC in series [1] came out at 1 µg/mL; in series [2], 2 µg/mL; in series [3] it was 0.25 µg/mL; in series [4], 2 µg/mL; in series [5], 2 µg/mL; in series [6], 2 µg/mL. Moreover, the minimal inhibitory concentration (MIC) in series [7] and in series [8] was 2 µg/mL in each case. The compound also returned a solubility at 12 h in [9] of 306 µM.
For `C=C[C@]1(C)C[C@@H](OC(=O)CSc2nc(-c3cc[n+](Cc4ccc(-c5ccccc5)cc4)cc3)cs2)[C@]2(C)[C@H](C)CC[C@]3(CCC(=O)[C@H]32)[C@@H](C)[C@@H]1O.[Br-]`, the MIC in [1] was determined as 2 µg/mL; in [2], 1 µg/mL; in series [3] it was 0.5 µg/mL; in series [4], 2 µg/mL; in series [5], 2 µg/mL; in series [6], 2 µg/mL. The MIC in [7] and in series [8] was 1 µg/mL in each case. In series [9], the solubility at 12 h was found to be 271 µM.
In the case of `C=C[C@]1(C)C[C@@H](OC(=O)CSc2nc(-c3ccncc3)cs2)[C@]2(C)[C@H](C)CC[C@]3(CCC(=O)[C@H]32)[C@@H](C)[C@@H]1O`, the MIC amounted to 16 µg/mL (≈ 28.8 µM) in [1]; 32 µg/mL (≈ 57.7 µM) in series [2]; 8 µg/mL (≈ 14.4 µM) in [3]; 32 µg/mL (≈ 57.7 µM) in [4]; 64 µg/mL (≈ 115 µM) in series [5]; 32 µg/mL (≈ 57.7 µM) in series [6]. In addition, the MIC in [7] amounted to 64 µg/mL (≈ 115 µM); in series [8] it was 32 µg/mL (≈ 57.7 µM).
Regarding `C=C[C@]1(C)C[C@@H](OC(=O)CSc2nc(-c3cc[n+](Cc4ccc(F)cc4)cc3)cs2)[C@]2(C)[C@H](C)CC[C@]3(CCC(=O)[C@H]32)[C@@H](C)[C@@H]1O.[Br-]`, the MIC in [1] is 2 µg/mL; in series [2], 8 µg/mL; in series [3], 1 µg/mL; in series [4], 4 µg/mL; in series [5] it was 16 µg/mL; in [6] it was 1 µg/mL. Also, the minimal inhibitory concentration (MIC) in [7] was determined as 2 µg/mL; in series [8] it was 1 µg/mL. In addition, the concentration in solution in series [9] (solubility at 12 h) was 807 µM.
On to `C=C[C@]1(C)C[C@@H](OC(=O)CSc2nc(-c3cc[n+](Cc4ccc(C(F)(F)F)cc4)cc3)cs2)[C@]2(C)[C@H](C)CC[C@]3(CCC(=O)[C@H]32)[C@@H](C)[C@@H]1O.[Br-]`, for which the MIC in [1] came out at 2 µg/mL; in series [2] it was 4 µg/mL; in [3] it was 0.25 µg/mL; in series [4] it was 2 µg/mL; in [5], 2 µg/mL; in series [6], 2 µg/mL. Also, the MIC was found to be 1 µg/mL in series [7] and 2 µg/mL in [8]. In series [9], this compound came in with a solubility at 12 h of 899 µM.
Regarding `C=C[C@]1(C)C[C@@H](OC(=O)CSc2nc(-c3cc[n+](CCCCCCCCCC)cc3)cs2)[C@]2(C)[C@H](C)CC[C@]3(CCC(=O)[C@H]32)[C@@H](C)[C@@H]1O.[Br-]`, the MIC in [1] came to 1 µg/mL; in series [2] it was 2 µg/mL; in series [3], 0.25 µg/mL; in series [4] it was 2 µg/mL; in series [5], 4 µg/mL; in series [6], 1 µg/mL. The MIC amounted to 2 µg/mL in series [7] and 4 µg/mL in [8]. In [9], this compound had a solubility at 12 h of 203 µM.
Turning to `C=C[C@]1(C)C[C@@H](OC(=O)CSc2nnc(-c3cc[n+](Cc4ccc(C)cc4)cc3)o2)[C@]2(C)[C@H](C)CC[C@]3(CCC(=O)[C@H]32)[C@@H](C)[C@@H]1O.[Br-]`, the MIC in [1] stood at 16 µg/mL; in [2] it was 16 µg/mL; in series [3] it was 4 µg/mL; in series [4], 64 µg/mL; in [5], 128 µg/mL; in series [6], 32 µg/mL. Besides, the MIC in series [7] stood at 32 µg/mL; in series [8], 64 µg/mL.
Take `C=C[C@]1(C)C[C@@H](OC(=O)CSc2nnc(-c3cc[n+](Cc4ccc(C#N)cc4)cc3)o2)[C@]2(C)[C@H](C)CC[C@]3(CCC(=O)[C@H]32)[C@@H](C)[C@@H]1O.[Br-]`: the MIC in [1] is 32 µg/mL; in series [2], 16 µg/mL; in series [3], 16 µg/mL; in series [4], 64 µg/mL; in series [5], above 128 µg/mL; in series [6], 32 µg/mL. The MIC in series [7] and in series [8] was 64 µg/mL throughout.

By MIC is commonly meant the lowest concentration found to suppress growth. The term solubility denotes the concentration that dissolves in the medium under given conditions. Low readings indicate a poorly soluble substance, high ones a readily soluble substance.

(Values after ChEMBL document CHEMBL5338747, “Discovery of Quaternized Pyridine-Thiazole-Pleuromutilin Derivatives with Broad-Spectrum Antibacterial and Potent Anti-MRSA Activity” (J Med Chem, 2023).)
